Results reported in ChEMBL document CHEMBL1123903, “Synthesis and antimalarial effects of 4-[(7-chloro-4-quinolinyl)amino]-2-[(diethylamino)methyl] -6-alkylphenols and their N omega-oxides” (1987).

Each compound was assayed on Mus musculus (assay: Number of mice surviving at 60 days postinfection when administered as a single dose of 640 mg/kg (sc) 72-h post infection). Details: not given.
Assay type: functional

Row | Compound | Cures
1 | CCN(CC)Cc1cc(Nc2ccnc3cc(Cl)ccc23)ccc1O.Cl | 5
2 | CCN(CC)Cc1cc(Nc2cc[n+]([O-])c3cc(Cl)ccc23)cc(C2CCCCC2)c1O | 5
3 | CCN(CC)Cc1cc(Nc2ccnc3cc(Cl)ccc23)cc(C2CCCCC2)c1O | 5
4 | CCC(C)c1cc(Nc2cc[n+]([O-])c3cc(Cl)ccc23)cc(CN(CC)CC)c1O (stereo unspecified) | 5

These compounds were tested on Mus musculus (assay: Number of mice surviving at 60 days postinfection when administered as a single dose of 80 mg/kg (sc) 72-h post infection). Details: not given.
Assay type: functional

Row | Compound | Cures
5 | CCN(CC)Cc1cc(Nc2ccnc3cc(Cl)ccc23)ccc1O.Cl | 2

These compounds were tested on Mus musculus (assay: Number of mice surviving at 60 days postinfection when administered as a single dose of 80 mg/kg (sc) 72-h post infection (delta MST)). Details: not given.
Assay type: functional

Row | Compound | Cures
6 | CCN(CC)Cc1cc(Nc2ccnc3cc(Cl)ccc23)cc(C2CCCCC2)c1O | 2

Each compound was assayed on Mus musculus (assay: Number of mice surviving at 60 days postinfection when administered as a single dose of 160 mg/kg (sc) 72-h post infection (delta MST)). Details: not given.
Assay type: functional

Row | Compound | Cures
7 | CCN(CC)Cc1cc(Nc2cc[n+]([O-])c3cc(Cl)ccc23)cc(C2CCCCC2)c1O | 3
8 | CCC(C)c1cc(Nc2cc[n+]([O-])c3cc(Cl)ccc23)cc(CN(CC)CC)c1O (stereo unspecified) | 2

What follows are compounds tested on Mus musculus (assay: Number of mice surviving at 60 days postinfection when administered as a single dose of 320 mg/kg (sc) 72-h post infection). Details: not given.
Assay type: functional

Row | Compound | Cures
9 | CCN(CC)Cc1cc(Nc2ccnc3cc(Cl)ccc23)ccc1O.Cl | 5
10 | CCN(CC)Cc1cc(Nc2ccnc3cc(Cl)ccc23)cc(C2CCCCC2)c1O | 5

The compounds below were run on Mus musculus (assay: Number of mice surviving at 60 days postinfection when administered as a single dose of 320 mg/kg (sc) 72-h post infection (delta MST)). Details: not given.
Assay type: functional

Row | Compound | Cures
11 | CCN(CC)Cc1cc(Nc2cc[n+]([O-])c3cc(Cl)ccc23)cc(C2CCCCC2)c1O | 4
12 | CCC(C)c1cc(Nc2cc[n+]([O-])c3cc(Cl)ccc23)cc(CN(CC)CC)c1O (stereo unspecified) | 3

Each compound was assayed on Mus musculus (assay: Number of deaths when administered as a single dose of 320 mg/kg (sc) 72-h postinfection in mice). Details: not given.
Assay type: functional

Row | Compound | Deaths
13 | CCN(CC)Cc1cc(Nc2cc[n+]([O-])c3cc(Cl)ccc23)cc(Cc2ccccc2)c1O | 14

The compounds below were run on Mus musculus (assay: Number of deaths when administered as a single dose of 640 mg/kg (sc) 72-h postinfection in mice). Details: not given.
Assay type: functional

Row | Compound | Deaths
14 | CCN(CC)Cc1cc(Nc2cc[n+]([O-])c3cc(Cl)ccc23)cc(Cc2ccccc2)c1O | 14

What follows are compounds tested on Mus musculus (assay: Antimalarial activity tested against trophozoite induced Plasmodium berghei in mice (Mus musculus) expressed as change in mean survival time after a single dose of 10 mg/kg (subcutaneously)). Details: route subcutaneous.
Assay type: functional

Row | Compound | Delta MST
15 | CCN(CC)Cc1cc(Nc2cc[n+]([O-])c3cc(Cl)ccc23)cc(C(C)(C)C)c1O | 3.7 days
16 | CCC(C)c1cc(Nc2cc[n+]([O-])c3cc(Cl)ccc23)cc(CN(CC)CC)c1O (stereo unspecified) | 4.6 days

These compounds were tested on Plasmodium berghei (assay: Change in mean survival time of trophozoite-induced Plasmodium berghei infection after 160 mg/kg subcutaneous dose). Details: not given.
Assay type: functional

Row | Compound | Delta MST
17 | CCN(CC)Cc1cc(Nc2cc[n+]([O-])c3cc(Cl)ccc23)cc(Sc2ccc(Cl)cc2)c1O | 7.6 days
18 | CCN(CC)Cc1cc(Nc2cc[n+]([O-])c3cc(Cl)ccc23)cc(C2CCCCC2)c1O | 22.4 days
19 | CCN(CC)Cc1cc(Nc2ccnc3cc(Cl)ccc23)cc(C(C)(C)C)c1O | 1.9 days
20 | CCN(CC)Cc1cc(Nc2cc[n+]([O-])c3cc(Cl)ccc23)cc(C(C)(C)C)c1O | 4.1 days
21 | CCN(CC)Cc1cc(Nc2ccnc3cc(Cl)ccc23)cc(Cc2ccccc2)c1O | 3.7 days
22 | CCN(CC)Cc1cc(Nc2ccnc3cc(Cl)ccc23)cc(Sc2ccc(Cl)cc2)c1O | 10.1 days
23 | CCN(CC)Cc1cc(Nc2cc[n+]([O-])c3cc(Cl)ccc23)cc(Cc2ccccc2)c1O | 5.4 days
24 | CCC(C)c1cc(Nc2cc[n+]([O-])c3cc(Cl)ccc23)cc(CN(CC)CC)c1O (stereo unspecified) | 30 days

These compounds were tested on Plasmodium berghei (assay: Change in mean survival time of trophozoite-induced Plasmodium berghei infection after 20 mg/kg subcutaneous dose). Details: not given.
Assay type: functional

Row | Compound | Delta MST
25 | CCN(CC)Cc1cc(Nc2ccnc3cc(Cl)ccc23)ccc1O.Cl | 8.3 days
26 | CCN(CC)Cc1cc(Nc2cc[n+]([O-])c3cc(Cl)ccc23)cc(Sc2ccc(Cl)cc2)c1O | 0.5 days
27 | CCN(CC)Cc1cc(Nc2cc[n+]([O-])c3cc(Cl)ccc23)cc(C2CCCCC2)c1O | 0.5 days
28 | CCN(CC)Cc1cc(Nc2ccnc3cc(Cl)ccc23)cc(C(C)(C)C)c1O | 0.1 days
29 | CCN(CC)Cc1cc(Nc2cc[n+]([O-])c3cc(Cl)ccc23)cc(C(C)(C)C)c1O | 0.1 days
30 | CCN(CC)Cc1cc(Nc2ccnc3cc(Cl)ccc23)cc(Cc2ccccc2)c1O | 0.2 days
31 | CCN(CC)Cc1cc(Nc2ccnc3cc(Cl)ccc23)cc(Sc2ccc(Cl)cc2)c1O | 3 days
32 | CCN(CC)Cc1cc(Nc2ccnc3cc(Cl)ccc23)cc(C2CCCCC2)c1O | 0.5 days
33 | CCN(CC)Cc1cc(Nc2cc[n+]([O-])c3cc(Cl)ccc23)cc(Cc2ccccc2)c1O | 0.4 days
34 | CCC(C)c1cc(Nc2cc[n+]([O-])c3cc(Cl)ccc23)cc(CN(CC)CC)c1O (stereo unspecified) | 12.6 days

What follows are compounds tested on Mus musculus (assay: Antimalarial activity tested against trophozoite induced Plasmodium berghei in mice (Mus musculus) expressed as change in mean survival time after a single dose of 320 mg/kg (subcutaneously)). Details: route subcutaneous.
Assay type: functional

Row | Compound | Delta MST
35 | CCN(CC)Cc1cc(Nc2cc[n+]([O-])c3cc(Cl)ccc23)cc(Sc2ccc(Cl)cc2)c1O | 9 days
36 | CCN(CC)Cc1cc(Nc2cc[n+]([O-])c3cc(Cl)ccc23)cc(C2CCCCC2)c1O | 24.9 days
37 | CCN(CC)Cc1cc(Nc2ccnc3cc(Cl)ccc23)cc(C(C)(C)C)c1O | 5.9 days
38 | CCN(CC)Cc1cc(Nc2cc[n+]([O-])c3cc(Cl)ccc23)cc(C(C)(C)C)c1O | 6.7 days
39 | CCN(CC)Cc1cc(Nc2ccnc3cc(Cl)ccc23)cc(Cc2ccccc2)c1O | 7.8 days
40 | CCC(C)c1cc(Nc2cc[n+]([O-])c3cc(Cl)ccc23)cc(CN(CC)CC)c1O (stereo unspecified) | 39.7 days

The compounds below were run on Plasmodium berghei (assay: Change in mean survival time of trophozoite-induced Plasmodium berghei infection after 40 mg/kg subcutaneous dose). Details: not given.
Assay type: functional

Row | Compound | Delta MST
41 | CCN(CC)Cc1cc(Nc2ccnc3cc(Cl)ccc23)ccc1O.Cl | 11.9 days
42 | CCN(CC)Cc1cc(Nc2cc[n+]([O-])c3cc(Cl)ccc23)cc(Sc2ccc(Cl)cc2)c1O | 4.1 days
43 | CCN(CC)Cc1cc(Nc2cc[n+]([O-])c3cc(Cl)ccc23)cc(C2CCCCC2)c1O | 3.9 days
44 | CCN(CC)Cc1cc(Nc2ccnc3cc(Cl)ccc23)cc(C(C)(C)C)c1O | 0.5 days
45 | CCN(CC)Cc1cc(Nc2cc[n+]([O-])c3cc(Cl)ccc23)cc(C(C)(C)C)c1O | 1.7 days
46 | CCN(CC)Cc1cc(Nc2ccnc3cc(Cl)ccc23)cc(Cc2ccccc2)c1O | 1.7 days
47 | CCN(CC)Cc1cc(Nc2ccnc3cc(Cl)ccc23)cc(Sc2ccc(Cl)cc2)c1O | 7.3 days
48 | CCN(CC)Cc1cc(Nc2ccnc3cc(Cl)ccc23)cc(C2CCCCC2)c1O | 5.7 days
49 | CCN(CC)Cc1cc(Nc2cc[n+]([O-])c3cc(Cl)ccc23)cc(Cc2ccccc2)c1O | 2 days
50 | CCC(C)c1cc(Nc2cc[n+]([O-])c3cc(Cl)ccc23)cc(CN(CC)CC)c1O (stereo unspecified) | 20.9 days

The compounds below were run on Mus musculus (assay: Antimalarial activity tested against trophozoite induced Plasmodium berghei in mice (Mus musculus) expressed as change in mean survival time after a single dose of 640 mg/kg (subcutaneously)). Details: route subcutaneous.
Assay type: functional

Row | Compound | Delta MST
51 | CCN(CC)Cc1cc(Nc2cc[n+]([O-])c3cc(Cl)ccc23)cc(Sc2ccc(Cl)cc2)c1O | 14.4 days
52 | CCN(CC)Cc1cc(Nc2ccnc3cc(Cl)ccc23)cc(C(C)(C)C)c1O | 6.3 days
53 | CCN(CC)Cc1cc(Nc2cc[n+]([O-])c3cc(Cl)ccc23)cc(C(C)(C)C)c1O | 6.1 days
54 | CCN(CC)Cc1cc(Nc2ccnc3cc(Cl)ccc23)cc(Cc2ccccc2)c1O | 7.9 days
55 | CCN(CC)Cc1cc(Nc2ccnc3cc(Cl)ccc23)cc(Sc2ccc(Cl)cc2)c1O | 13.1 days

Each compound was assayed on Plasmodium berghei (assay: Change in mean survival time of trophozoite-induced Plasmodium berghei infection after 80 mg/kg subcutaneous dose). Details: not given.
Assay type: functional

Row | Compound | Delta MST
56 | CCN(CC)Cc1cc(Nc2cc[n+]([O-])c3cc(Cl)ccc23)cc(Sc2ccc(Cl)cc2)c1O | 3.4 days
57 | CCN(CC)Cc1cc(Nc2cc[n+]([O-])c3cc(Cl)ccc23)cc(C2CCCCC2)c1O | 8.5 days
58 | CCN(CC)Cc1cc(Nc2ccnc3cc(Cl)ccc23)cc(C(C)(C)C)c1O | 1.7 days
59 | CCN(CC)Cc1cc(Nc2cc[n+]([O-])c3cc(Cl)ccc23)cc(C(C)(C)C)c1O | 2.9 days
60 | CCN(CC)Cc1cc(Nc2ccnc3cc(Cl)ccc23)cc(Cc2ccccc2)c1O | 3.4 days
61 | CCN(CC)Cc1cc(Nc2ccnc3cc(Cl)ccc23)cc(Sc2ccc(Cl)cc2)c1O | 8.8 days
62 | CCN(CC)Cc1cc(Nc2ccnc3cc(Cl)ccc23)cc(C2CCCCC2)c1O | 10.6 days
63 | CCN(CC)Cc1cc(Nc2cc[n+]([O-])c3cc(Cl)ccc23)cc(Cc2ccccc2)c1O | 4.2 days
64 | CCC(C)c1cc(Nc2cc[n+]([O-])c3cc(Cl)ccc23)cc(CN(CC)CC)c1O (stereo unspecified) | 21.9 days

These compounds were tested on Mus musculus (assay: Number of mice surviving at 60 days postinfection when administered as a single dose of 160 mg/kg (sc) 72-h post infection). Details: not given.
Assay type: functional

Row | Compound | Cures
65 | CCN(CC)Cc1cc(Nc2ccnc3cc(Cl)ccc23)ccc1O.Cl | 5
66 | CCN(CC)Cc1cc(Nc2ccnc3cc(Cl)ccc23)cc(C2CCCCC2)c1O | 5
